19 molecules from ChEMBL document CHEMBL1641541, “Synthesis and antitrypanosomal evaluation of derivatives of N-benzyl-1,2-dihydroquinolin-6-ols: Effect of core substitutions and salt formation” (Bioorg Med Chem, 2011) can be followed below.

One series deals with L6. In words: Cytotoxicity against rat L6 cells after 70 hrs by alamar blue assay. Format: cell-based. As to conditions: L6, 70 h.
Series [1] has as its system Trypanosoma brucei rhodesiense. In words: Antitrypanosomal activity against bloodstream form of Trypanosoma brucei rhodesiense STIB900 after 70 hrs by alamar blue assay. The class given is functional, organism-based. The note with it: STIB900, 70 h.
For series [2], the system named is Trypanosoma brucei rhodesiense. Description: Antitrypanosomal activity against bloodstream form of Trypanosoma brucei rhodesiense STIB900 infected in NMRI mouse assessed as suppression of parasitemia level in mouse tail blood at 50 mg/kg, ip qd for 4 consecutive days measured 5 days post infection. The class given is functional, organism-based. The arrangement: dose 50 mg/kg.

In series [3] the test system is Trypanosoma brucei rhodesiense. In words: Antitrypanosomal activity against bloodstream form of Trypanosoma brucei rhodesiense STIB900 infected in NMRI mouse assessed as day of parasitemia relapse at 50 mg/kg, ip qd for 4 consecutive days. Format: functional.
The test system of a further series is Trypanosoma brucei. In words: Antitrypanosomal activity against bloodstream form of Trypanosoma brucei s427 after 72 hrs by MTT assay. The class given is functional, organism-based. The note with it: s427, 72 h. (In general: Tetrazolium dyes change colour on reduction, which living cells bring about.)
Series [4] is described as follows: Chemical stability of the compound in 100 mM phosphate buffer at pH 7.4. The class given is physicochemical.
Series [5] relates to Trypanosoma brucei rhodesiense. In words: Antitrypanosomal activity against bloodstream form of Trypanosoma brucei rhodesiense STIB900 infected in NMRI mouse assessed as suppression of parasitemia level in mouse tail blood at 5 mg/kg, ip qd for 4 consecutive days measured 5 days post infection. Also noted: dose 5 mg/kg. The class given is functional, organism-based.
Series [6] deals with Trypanosoma brucei rhodesiense. Description: Antitrypanosomal activity against bloodstream form of Trypanosoma brucei rhodesiense STIB900 infected in NMRI mouse assessed as suppression of parasitemia level in mouse tail blood at 10 mg/kg, ip qd for 4 consecutive days measured 5 days post infection. Format: functional, organism-based. The arrangement: dose 10 mg/kg.

Activity calls are given as the source filed them. The rule behind the calls is not given here.

As a reminder, the IC50 is the point on the concentration scale where inhibition reaches its midpoint. As for `CCOc1ccc2c(c1)C(C)=CC(C)(C)N2Cc1ccc(F)c(F)c1`, the IC50 with L6 was determined as 90 µM; in series [1] it was 140 µM. Besides, the result in series [2] and in series [3] was inactive.

On to `CC(=O)Oc1cc2c(cc1Cl)N(Cc1ccccc1)C(C)(C)C=C2C`, for which the IC50 in the series with L6 was 22 µM; with Trypanosoma brucei, 0.22 µM; in series [1], 0.042 µM.

As for `CC(=O)Oc1c(Cl)cc2c(c1Cl)C(C)=CC(C)(C)N2Cc1ccccc1`, the figures for the IC50 (with L6; in the series with Trypanosoma brucei; in series [1]) were 110 µM, 0.49 µM and 0.072 µM, respectively.

Consider `CC1=CC(C)(C)N(Cc2ccccc2)c2ccc(O)cc21.Cl`, for which the figures for the IC50 (with L6; with Trypanosoma brucei; in series [1]) were 11 µM, 0.038 µM and 0.013 µM, respectively. Besides, the outcome in series [2] was Active. In series [4], the Stability entry is “Unstable”.

Consider `CCOc1ccc2c(c1)C(C)=CC(C)(C)N2Cc1ccccc1`, for which the IC50 turned out to be 97 µM in the series with L6 and 41 µM in series [1]. The outcome in series [3] was inactive.

Take `CC(=O)Oc1ccc2c(c1)C(C)=CC(C)(C)N2Cc1ccc(F)c(F)c1`: the IC50 in the series with L6 stood at 17 µM; in the series with Trypanosoma brucei it was 0.079 µM; in series [1] it was 0.025 µM.

As for `COc1ccccc1CN1c2ccc(O)cc2C(C)=CC1(C)C.Cl`, the IC50 was 12 µM in the series on L6, 0.045 µM in the series on Trypanosoma brucei and 0.014 µM in series [1]. Further, the outcome in series [2] was Active. In addition, the Stability entry in series [4] is “Unstable”.

`COc1cc(OC(C)=O)cc2c1N(Cc1ccccc1)C(C)(C)C=C2C` had an IC50 in the series on Trypanosoma brucei of more than 100 µM.

As to `CC1=CC(C)(C)N(Cc2ccc(F)c(F)c2)c2ccc(O)cc21`, the IC50 with L6 came out at 11 µM; with Trypanosoma brucei, 0.068 µM; in series [1], 0.051 µM.

For the molecule `N=C(N)c1ccc(OCCCCCOc2ccc(C(=N)N)cc2)cc1` [PENTAMIDINE], the IC50 with L6 came to 25 µM; in the series on Trypanosoma brucei, 0.012 µM; in series [1], 0.0013 µM. For the same molecule, in series [5], the outcome was Active.

For `CC(=O)Oc1cc2c(cc1-c1ccc(C(F)(F)F)cc1)N(Cc1ccccc1)C(C)(C)C=C2C`, the IC50 in the series with L6 was more than 190 µM; with Trypanosoma brucei, 15 µM; in series [1], 9 µM.

For the molecule `N=C(N)c1ccc(/N=N/Nc2ccc(C(=N)N)cc2)cc1` [DIMINAZENE], the IC50 in the series on L6 amounted to 5 µM; in series [1], 0.0058 µM. Also, in series [6], the result was Active.

For `CC(=O)Oc1cc2c(cc1C)N(Cc1ccccc1)C(C)(C)C=C2C`, in the series on Trypanosoma brucei, the IC50 is 0.031 µM.

On to `CC(=O)Oc1cc(C)c2c(c1)C(C)=CC(C)(C)N2Cc1ccccc1`, for which the figures for the IC50 (with L6; with Trypanosoma brucei; in series [1]) were 48 µM, 9.2 µM and 43 µM, respectively.

Regarding `COc1ccccc1CN1c2ccc(OC(C)=O)cc2C(C)=CC1(C)C`, the IC50 in the series on L6 was determined as 17 µM; in the series on Trypanosoma brucei, 0.041 µM; in series [1] it was 0.011 µM. Further, the result in series [2] was Active.

Regarding `CC(=O)Oc1ccc2c(c1)C(c1ccccc1)=CC(C)(C)N2Cc1ccccc1`, the IC50 in the series on L6 is 49 µM; with Trypanosoma brucei, 20 µM; in series [1], 4.5 µM.

`CC(=O)Oc1ccc2c(c1)C(C)=CC(C)(C)N2Cc1ccccc1`: the IC50 amounted to 18 µM with L6, 0.058 µM in the series with Trypanosoma brucei and 0.012 µM in series [1]. The Activity in series [3] (route intraperitoneal) came to 12.75 days.

Take `Cc1ccc(C(=O)Nc2ccc(S(=O)(=O)O)c3cc(S(=O)(=O)O)cc(S(=O)(=O)O)c23)cc1NC(=O)c1cccc(NC(=O)Nc2cccc(C(=O)Nc3cc(C(=O)Nc4ccc(S(=O)(=O)O)c5cc(S(=O)(=O)O)cc(S(=O)(=O)O)c45)ccc3C)c2)c1` [SURAMIN]: the IC50 in the series with Trypanosoma brucei was found to be 0.11 µM. That is a sub-micromolar value.

For `CC(=O)Oc1ccc2c(c1)C(C)=CC(C)(C)N2Cc1ccc(C(C)C)cc1`, the IC50 in the series with L6 was 10 µM; in the series with Trypanosoma brucei, 0.97 µM; in series [1], 0.28 µM.
